Test results reported in patent publication US20250376481A1, “POLYCYCLIC CARBAMOYL PYRIDONE DERIVATIVE, PREPARATION METHOD THEREFOR AND PHARMACEUTICAL COMPOSITION THEREOF” (NANJING AIDEA PHARMACEUTICAL TECHNOLOGY CO., LTD., priority 2021, published 2025).

How the values were obtained:
in vivo = test: in vivo; design: species or system Crab-eating macaques (Macaca fascicularis); settings: male, cynomolgus monkey, po
Protocol: Crab-eating macaques were used as test animal, the LC-MS/MS was used to determinate the drug concentration at different times in the plasma of crab-eating macaques, who had been administered with compound 1 via gavage (PO). The pharmacokinetic behaviors of compounds of present disclosure in crab-eating macaques were studied and their pharmacokinetic characteristics were evaluated.
Crab-eating macaques (Macaca fascicularis), common grade, male, approximately 2.5-4 years old, 2-5 kg weight, 3 in each group.
Compound 1 and a solid substrate (hydroxypropyl methylcellulose acetate succinate) are dissolved in an organic solvent, and the solvent was removed by heating evaporation, or removed by a spray dryer to obtain compound 1 loaded on the solid substrate.
Compound 1 loaded on the solid substrate, which was obtained according to the above steps, was slowly added to a suitable container with approximately 80% final volume of vehicle while stirring. Stirred until it is visually uniform, and if necessary, the formulation shall be subjected to ultrasonic treatment. Vehicle was added to give the desired concentration. The obtained formulation shall be consecutively stirred until a visually uniform formulation was obtained, and if necessary, the formulation shall be subjected to ultrasonic treatment. The administration concentration with 20 mg/mL API concentration was prepared, and the preparation method for above vehicle was: approximately 30% total volume of purified water was added to an suitable container, and heated up to approximately 80° C.-90° C., the required volume of Tween 80 was added slowly to the container, while stirred until visually uniform. Purified water was added to the final volume. Stirred until a visually uniform solution was obtained.
Crab-eating macaques were fast overnight and given free access to water. […] Feeding was resumed 2 hours after administration.
For crab-eating macaques administered by gavage, 20 μL blood were collected from the veins in hind limb before administration and 0.25, 0.5, 1, 2, 4, 8, 24, 48, 72 and 96 hours after administration, respectively, and placed in EDTA-K2 anticoagulant blood collection tubes, and then the blood would be placed on ice until centrifuged to obtain plasma samples. The plasma samples were centrifuged at 4° C. (3500 rpm, 10 min), and after separation, the plasma samples were transferred to EP tubes and stored at −80° C. for detection.
The level of tested compounds in the plasma of crab eating macaques, who had been orally administrated with different concentrations of drug were determinated: 10 μL macaque blood at each time point after administration was taken, 100 μL methanol containing an internal standard (100 ng/mL) was added, vortex mixed for 1 minute, centrifuged at 4° C. (12000 rmp, 5 minutes), and 1 μL supernatant was taken from the plasma samples for LC-MS/MS analysis.

HIV-1 pseudovirus = HIV-1 pseudovirus infection test (antiviral activity, luciferase); assay type: cell-based; settings: Human immunodeficiency virus 1, HEK-293T, 72 h
Protocol: • Virus: The HIV-1 pseudovirus used in this experiment was a replication deficient virus, which is constructed by WuXi AppTec. • HEK 293T cell line was purchased from ATCC, and Item No. is CRL-11268. Cells were cultured in DMEM medium with 10% fetal bovine serum and 1% double antibody. • Reagents
On the first day, HEK 293T cells were inoculated into a 96 well test plate at the density of 55000 cells per well and […] per well, and incubated overnight in a 5% CO2 and 37° C. incubator.
On the second day, the tested compounds (compounds provided in the example of the present invention) and the control compounds were diluted 4-fold with cell culture medium for a total of 8 concentration points, and 50 μL diluted compounds were added to each well, and each well was performed duplicate.
Subsequently, the HIV-1 pseudovirus was diluted to 100 TCID50/50 μL with cell culture medium, and 50 μL diluted virus was added to each well.
Cell Control (cells, no compound treatment or virus infection) and virus control (cells infected with virus, no compound treatment) were set up. The final initial test concentration of the tested compounds and control compounds was 1000 nM (Table 1), and the amount of virus infection was 100 TCID50 per well. The total volume of cell culture medium was 200 μL per well, and the final concentration of DMSO in the culture medium was 0.5%.
The cells were cultured in a 5% CO2 and 37° C. incubator for additional 3 days.
On the fifth day, in the antiviral activity test plates, 100 μL cell supernatant was sucked away from each well, 100 μL 2X luciferase reporter gene assay reagent Britellite plus was added in dark. The luciferase activity in each well of the test plates was detected by Envision. The data was used for sample antiviral activity analysis.
Dose-response curve was drawn through GraphPad Prism software. The calculation equations for antiviral activity (% Inhibition) and cell viability (% cell viability) were as follow:
The values of EC50 and CC50 were analyzed by GraphPad Prism (version 5) software, and nonlinear fitting analysis was used for inhibitory activity and cell viability of the compounds, and the fitting method was “log (inhibitor) vs. response—Variable slope”.
3. The HIV-1 pseudovirus experiment was applied to determinate the in vitro antiviral activity and cytotoxicity of the tested compound on HEK 293T cells, and the experimental results were shown in the table below.

HIV-1 integrase = HIV-1 integrase (Human immunodeficiency virus type 1 group M subtype B, UniProt P04585); test: Integrase activity test (HIV-1 Integrase Assay Kit EZ-1700)
Protocol: A non-radioactive assay method, an integrase assay kit, was used to measure integrase activity quantitatively.
Each component was prepared according to the instructions of the kit; preparation of test sample, 5 mM DMSO solution was prepared for backup, working solution was prepared according to the initial final concentration determined at the time of method establishment, with a 4-fold gradient dilution and 10 concentrations.
• (1) The working solution of sample was prepared according to the initial concentration determinated during the methodology establishment process; • (2) Reagents were prepared according to the methods provided in the kit; • (3) DS DNA coating—blocking—addition of integrase solution—addition of sample—addition of TS DNA—addition of HRP antibody-addition of TMB peroxidase substrate—TMB termination reaction-detection of light absorption value at 450 nm.
The software Graphpad Prism 8.0 was applied and the calculation equation of Log (inhibitor) vs. response variable slope was used to fit the IC50 curve.

## C[C@H]1N2C(=O)c3c(O)c(=O)c(C(=O)NCc4ccc(F)cc4F)cn3C[C@@H]2OCC12CC2 [Compound 1]
In vivo; 30 mg/kg
  AUC(0-inf): 23100 ± 3840 ng·h/mL
  AUC(0-t): 22900 ± 3810 ng·h/mL
  Cmax: 1800 ± 534 ng/mL
  MRT: 14.1 ± 2.68 h
  Tmax: 4 h
  half-life: 15.7 ± 5.49 h
In vivo; 100 mg/kg
  AUC(0-inf): 164000 ng·h/mL
  AUC(0-t): 140000 ± 44200 ng·h/mL
  Cmax: 4040 ± 871 ng/mL
  MRT: 26.9 h
  Tmax: 18.7 ± 25.4 h
  half-life: 19.8 ± 4.78 h
HIV-1 pseudovirus
  EC50: 1.08 nM
HIV-1 integrase
  IC50: 9.19 nM
